ChEMBL document CHEMBL1201862, “PubChem BioAssay data set” (2004)
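Values below derive from 48-hour exposures of cells grown in 96-well plates, with endpoints linearly interpolated between the two concentrations bracketing the appropriate inhibition level. Here, GI50 denotes the concentration required for 50% inhibition of growth.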 The source made the active and inactive calls. No stated cut-off is given here; in the data, active = GI50 up to about 1.1 µM and inactive = higher.

Key:
Experiment in all cases: NCI tumour cell line growth inhibition, 48 h
NCI-H522 = test system: NCI-H522
SW-620 = test system: SW-620
UACC-62 = test system: UACC-62
SK-MEL-5 = test system: SK-MEL-5
SK-MEL-28 = test system: SK-MEL-28
HCC 2998 = test system: HCC 2998
PC-3 = test system: PC-3
HCT-116 = test system: HCT-116
SF-539 = test system: SF-539
HOP-92 = test system: HOP-92
MDA-N = test system: MDA-N
T47D = test system: T47D
DU-145 = test system: DU-145
NCI-H226 = test system: NCI-H226
M14 = test system: M14
Malme-3M = test system: Malme-3M
UO-31 = test system: UO-31
SN12C = test system: SN12C
SF-268 = test system: SF-268
UACC-257 = test system: UACC-257
SR = test system: SR
OVCAR-3 = test system: OVCAR-3
A498 = test system: A498
SNB-75 = test system: SNB-75
OVCAR-5 = test system: OVCAR-5
LOX IMVI = test system: LOX IMVI
OVCAR-8 = test system: OVCAR-8
MDA-MB-231 = test system: MDA-MB-231
RXF 393 = test system: RXF 393
NCI-H460 = test system: NCI-H460
BT-549 = test system: BT-549
HOP-62 = test system: HOP-62
HCT-15 = test system: HCT-15
OVCAR-4 = test system: OVCAR-4
Hs-578T = test system: Hs-578T
MDA-MB-435 = test system: MDA-MB-435
CAKI-1 = test system: CAKI-1
A549 = test system: A549
RPMI-8226 = test system: RPMI-8226
IGROV-1 = test system: IGROV-1
NCI-H23 = test system: NCI-H23
MOLT-4 = test system: MOLT-4
MCF7 = test system: MCF7
NCI/ADR-RES = test system: NCI/ADR-RES
SK-OV-3 = test system: SK-OV-3
KM12 = test system: KM12
EKVX = test system: EKVX
HT-29 = test system: HT-29
SNB-19 = test system: SNB-19
786-0 = test system: 786-0
TK-10 = test system: TK-10
CCRF-CEM = test system: CCRF-CEM
HL-60 = test system: HL-60
U-251 = test system: U-251
K562 = test system: K562
ACHN = test system: ACHN
SF-295 = test system: SF-295
COLO 205 = test system: COLO 205
SK-MEL-2 = test system: SK-MEL-2

SMILES: Nc1ncnc2c1ncn2C1OC(CO)C(O)C1NS(=O)(=O)c1ccccc1 (centres undefined)
- GI50 (NCI-H522): > 100 µM (inactive)
- GI50 (SW-620): > 100 µM (inactive)
- GI50 (UACC-62): > 100 µM (inactive)
- GI50 (SK-MEL-5): > 100 µM (inactive)
- GI50 (SK-MEL-28): > 100 µM (inactive)
- GI50 (HCC 2998): > 100 µM (inactive)
- GI50 (PC-3): > 100 µM (inactive)
- GI50 (HCT-116): > 100 µM (inactive)
- GI50 (SF-539): > 100 µM (inactive)
- GI50 (HOP-92): > 100 µM (inactive)
- GI50 (MDA-N): > 100 µM (inactive)
- GI50 (T47D): > 100 µM (inactive)
- GI50 (DU-145): > 100 µM (inactive)
- GI50 (NCI-H226): > 100 µM (inactive)
- GI50 (M14): > 100 µM (inactive)
- GI50 (Malme-3M): > 100 µM (inactive)
- GI50 (UO-31): > 100 µM (inactive)
- GI50 (SN12C): > 100 µM (inactive)
- GI50 (SF-268): > 100 µM (inactive)
- GI50 (UACC-257): > 100 µM (inactive)
- GI50 (SR): > 100 µM (inactive)
- GI50 (OVCAR-3): > 100 µM (inactive)
- GI50 (A498): > 100 µM (inactive)
- GI50 (SNB-75): > 100 µM (inactive)
- GI50 (OVCAR-5): > 100 µM (inactive)
- GI50 (LOX IMVI): > 100 µM (inactive)
- GI50 (OVCAR-8): > 100 µM (inactive)
- GI50 (MDA-MB-231): > 100 µM (inactive)
- GI50 (RXF 393): > 100 µM (inactive)
- GI50 (NCI-H460): > 100 µM (inactive)
- GI50 (BT-549): > 100 µM (inactive)
- GI50 (HOP-62): > 100 µM (inactive)
- GI50 (HCT-15): > 100 µM
- GI50 (OVCAR-4): > 100 µM (inactive)
- GI50 (Hs-578T): > 100 µM (inactive)
- GI50 (MDA-MB-435): > 100 µM (inactive)
- GI50 (CAKI-1): > 100 µM (inactive)
- GI50 (A549): > 100 µM (inactive)
- GI50 (RPMI-8226): > 100 µM (inactive)
- GI50 (IGROV-1): > 100 µM (inactive)
- GI50 (NCI-H23): > 100 µM (inactive)
- GI50 (MOLT-4): > 100 µM (inactive)
- GI50 (MCF7): > 100 µM (inactive)
- GI50 (NCI/ADR-RES): > 100 µM (inactive)
- GI50 (SK-OV-3): > 100 µM (inactive)
- GI50 (KM12): > 100 µM (inactive)
- GI50 (EKVX): > 100 µM (inactive)
- GI50 (HT-29): > 100 µM (inactive)
- GI50 (SNB-19): > 100 µM (inactive)
- GI50 (786-0): > 100 µM (inactive)
- GI50 (TK-10): > 100 µM (inactive)
- GI50 (CCRF-CEM): > 100 µM (inactive)
- GI50 (HL-60): > 100 µM (inactive)
- GI50 (U-251): > 100 µM (inactive)
- GI50 (K562): > 100 µM (inactive)
- GI50 (ACHN): > 100 µM (inactive)
- GI50 (SF-295): > 100 µM (inactive)
- GI50 (COLO 205): > 100 µM (inactive)
- GI50 (SK-MEL-2): > 100 µM (inactive)
